Columns and labels:
adipose LHCGR = biological target: T1, adipose LHCGR (Mus musculus, UniProt P30730); assay: ERK1/2 phosphorylation in differentiated 3T3-L1 adipocytes (Western blot); type: cell-based
T1 construct: host or cells: differentiated 3T3-L1 adipocytes
Text: siRNA KNOCKDOWN: Lentiviral vectors expressing Lhcgr siRNA (ABM 2649609) or siControl (ABM LVP015-G) were used per manufacturer's recommendation.
WESTERN BLOTTING: Proteins were blotted with commercial antibodies (Cell Signaling, Phospho-ERK1/2, 9101S; ERK1/2, 4695S, 1:5000).

3T3-L1 adipocytes [1] = assay: oil droplet accumulation (Oil Red O staining) in 3T3-L1 adipocytes; type: cell-based, mouse; details: 6 nM, 12 hours
Protocol: (§1) In order to study the mechanism of LHCGR activation on body fat, 3T3.L1 pre-adipocytes and adipose organoids were used. Oil Red 0 staining can be used to mark lipid-containing vacuoles and quantify cell lipid content. […] The thickness of the “differentiating cell layer” was measured with QuPath-0.2.3.

[2] = system: C57BL/6 mice fed on high-fat diet; assay: ORG 43553 in C57BL/6 mice on high-fat diet, 9 weeks (Example 6); type: in vivo, mouse; details: 17 mg/kg subcutaneous
Protocol: In order to evaluate the effect of treatment with LHCGR agonist ORG 43553 on body fat in mice, 14-week-old C57BL/6 mice (25 mice/group) were treated with subcutaneous injections of vehicle or ORG 43553 (17 mg/kg), and fed on high-fat diet for 9 weeks.

male C57BL/6 mice = assay: ORG 43553 in male C57BL/6 mice, 9 weeks (Example 8, incl. replication cohort); type: in vivo, mouse
Protocol: Next, the LHCGR agonist ORG 43553 was injected into male C57BL/6 mice (N=24/group) (17 mg/kg, subcutaneous, twice-a-week) for 9 weeks.

[3] = system: organoids derived from 3T3-L1 cells; assay: adipose organoids derived from 3T3-L1 cells, thickness of differentiating cell layer; type: cell-based, mouse; details: exposed for 3 days, further differentiated 7 days
Protocol: as §1

3T3-L1 adipocytes [4] = assay: oxygen consumption rate (OCR) on Seahorse Xf96 Analyzer; type: cell-based, mouse; details: pretreated for 1 hour
Protocol: (§2) 3T3-L1 adipocytes were thus pretreated with ORG 43553 for 1 hour before measuring oxygen consumption rate (OCR) on a Seahorse Xf96 Analyzer. […] ORG 43553 increased OCR at baseline and upon oligomycin exposure, indicating mitochondria proton leak—a surrogate for thermogenesis. To confirm increased energy expenditure in vivo, mice (N=6/group) on high-fat diet were acclimated to metabolic cages for 1 day, before being injected subcutaneously with ORG 43553 (17 mg/kg, blue line) or vehicle and monitored for 48 hours.

mice on high-fat diet = assay: metabolic cages, mice on high-fat diet; type: in vivo, mouse; details: 17 mg/kg subcutaneous, monitored for 48 hours
Protocol: as §2

human LHCGR = human LHCGR (Homo sapiens, UniProt P22888); details: read-out: EC50, agonistic activity to human LHCGR; cited from earlier work
Chain of human LHCGR (P22888 27-699): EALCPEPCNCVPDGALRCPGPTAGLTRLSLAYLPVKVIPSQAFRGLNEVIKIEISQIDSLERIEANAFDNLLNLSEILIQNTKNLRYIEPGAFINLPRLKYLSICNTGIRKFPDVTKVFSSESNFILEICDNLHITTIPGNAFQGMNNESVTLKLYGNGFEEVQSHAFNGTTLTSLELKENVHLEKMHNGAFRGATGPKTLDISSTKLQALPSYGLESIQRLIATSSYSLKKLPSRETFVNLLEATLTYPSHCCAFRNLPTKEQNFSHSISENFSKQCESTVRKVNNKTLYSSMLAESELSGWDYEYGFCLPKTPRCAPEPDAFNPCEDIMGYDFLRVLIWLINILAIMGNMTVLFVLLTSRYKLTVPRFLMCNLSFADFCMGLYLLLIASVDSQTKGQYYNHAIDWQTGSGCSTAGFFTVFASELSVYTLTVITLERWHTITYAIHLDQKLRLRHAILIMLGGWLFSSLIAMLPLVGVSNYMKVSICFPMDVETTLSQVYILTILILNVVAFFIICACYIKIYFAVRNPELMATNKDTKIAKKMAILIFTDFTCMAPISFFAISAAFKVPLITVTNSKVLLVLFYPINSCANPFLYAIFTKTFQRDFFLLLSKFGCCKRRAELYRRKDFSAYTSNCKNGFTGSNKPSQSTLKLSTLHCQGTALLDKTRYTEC

[5] = 17 mg/kg subcutaneous twice-a-week, 9 weeks

T1 sequence (P30730 27-700): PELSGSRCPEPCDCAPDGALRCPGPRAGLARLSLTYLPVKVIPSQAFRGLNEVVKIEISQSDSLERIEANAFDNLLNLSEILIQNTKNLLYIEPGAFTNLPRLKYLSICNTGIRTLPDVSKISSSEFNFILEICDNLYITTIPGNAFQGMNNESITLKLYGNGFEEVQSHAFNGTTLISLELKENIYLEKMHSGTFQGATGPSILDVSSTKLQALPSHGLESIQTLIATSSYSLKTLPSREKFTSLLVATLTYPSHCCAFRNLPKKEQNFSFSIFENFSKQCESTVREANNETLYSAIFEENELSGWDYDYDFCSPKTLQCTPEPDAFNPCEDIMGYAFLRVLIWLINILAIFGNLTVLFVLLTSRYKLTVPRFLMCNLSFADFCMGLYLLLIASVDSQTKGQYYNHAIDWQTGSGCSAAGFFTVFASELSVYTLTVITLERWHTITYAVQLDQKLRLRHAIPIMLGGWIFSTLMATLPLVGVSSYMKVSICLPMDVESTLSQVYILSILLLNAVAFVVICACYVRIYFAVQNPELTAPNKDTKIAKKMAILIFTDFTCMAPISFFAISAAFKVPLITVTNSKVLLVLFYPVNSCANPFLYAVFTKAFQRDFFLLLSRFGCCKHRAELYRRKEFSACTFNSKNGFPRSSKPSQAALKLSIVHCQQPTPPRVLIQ

Structure (SMILES): CSc1nc(-c2cccc(NC(=O)CN3CCOCC3)c2)c2c(N)c(C(=O)NC(C)(C)C)sc2n1 [ORG 43553, 5-amino-2-methylsulfanyl-4-[3-(2-morpholin-4-yl-acetylamino)-phenyl]-thieno[2,3-d]pyrimidine-6-carboxylic acid tert-butylamide]
- ERK1/2 phosphorylation (adipose LHCGR; differentiated 3T3-L1 adipocytes): rapidly induced ERK1/2 phosphorylation in a concentration-dependent manner
- ERK1/2 phosphorylation with LHCGR siRNA knockdown (adipose LHCGR; siLhcgr 3T3-L1 cells): no signal
- oil droplet accumulation (Oil Red O staining) (3T3-L1 adipocytes [1]): reduced oil droplet accumulation
- diet-induced fat mass [2]: reduced
- gWAT weight [2]: lower
- iWAT weight [2]: lower
- lean mass [2]: but not lean mass
- mWAT weight [2]: lower
- total mass [2]: reduced
- fat mass (male C57BL/6 mice; [5]): significant reduction
- gWAT (male C57BL/6 mice; [5]): reduced
- iWAT (male C57BL/6 mice; [5]): reduced
- number of adipocytes in iWAT with areas below 4000 μm^2 (male C57BL/6 mice; [5]): greater numbers
- number of adipocytes in iWAT with areas greater than 4000 μm^2 (male C57BL/6 mice; [5]): fewer
- renal WAT (rWAT) (male C57BL/6 mice; [5]): reduced
- fat mass (male C57BL/6 mice; replication cohort): significant reduction
- gWAT (male C57BL/6 mice; replication cohort): reduced
- iWAT (male C57BL/6 mice; replication cohort): reduced
- mWAT (male C57BL/6 mice; replication cohort): reduced
- total mass (male C57BL/6 mice; replication cohort): significant reduction
- differentiated layer of organoids (thickness) compared to vehicle-treated organoids [3]: substantial reduction
- oxygen consumption rate (OCR) at baseline (3T3-L1 adipocytes [4]): increased
- oxygen consumption rate (OCR) upon oligomycin exposure (3T3-L1 adipocytes [4]): increased
- energy expenditure (EE) (mice on high-fat diet): increased acutely
- oxygen consumption (VO2) (mice on high-fat diet): increased acutely
- EC50 (human LHCGR): 3.7 nM

Reference: patent publication US20250325555A1, “Method of Treating Obesity with a Luteinizing Hormone Receptor Agonist” (ICAHN SCHOOL OF MEDICINE AT MOUNT SINAI, priority 2022, published 2025)
